Source: PMC9545004, “Transglutaminase 2 affinity and enzyme‐substrate intermediate stability as determining factors for T‐cell responses to gluten peptides in celiac disease” (European Journal of Immunology, 2022)
Like-named read-outs stand apart in the source and are kept apart here.

Tests used:
[1] = test system: TG2:gluten complexes uptake by TG2-specific B cells (A20, BCR 679-14-E06); test: Inhibition by primary amines of TG2:gluten complex uptake by TG2-specific B cells, flow cytometry; format: cell-based, Murine A20 B lymphoma; recombinant human TG2; settings: for IC50: B-cell
Text: (§1) Murine A20 B lymphoma cells engineered to express either the celiac patient‐derived TG2‐specific BCR 679‐14‐E06 or the non‐TG2‐specific BCR 693‐2‐F02 as human IgD are previously described. For B‐cell/T‐cell collaboration assays, we used A20 BCR transfectants also transduced to express HLA‐DQ2.5 [27]. Murine BW58α^–β^– cells were retrovirally transduced to express human CD4 as well as the celiac patient‐derived gluten‐specific TCR from a DQ2.5‐glia‐γ1‐reactive T‐cell clone (TCC 4.32) as previously described. The generation of TCR transfectants expressing DQ2.5‐glia‐α2‐reactive TCR (TCC 364.14) and DQ2.5‐glia‐ω2‐reactive TCR (clone 737.30) have been described previously.
B‐cell uptake of gluten peptides was measured essentially as previously described. The following 9‐mer peptides were compared: FITC‐α2, FITC‐ω2, FITC‐γ1, and FITC‐γ3. In brief, A20 cells (300 000/well) expressing TG2‐specific (679‐14‐E06) or non‐TG2 specific BCR (693‐2‐F02) were incubated with recombinant TG2 (final 3 µg/mL), 5 µM FITC peptide, and 2 mM CaCl2 in RPMI at a final volume of 50 µL. Following incubation at 37°C, the TG2 enzymatic activity was quenched by the addition of 100 µL 2 mM EDTA/RPMI at specific timepoints. Cells were washed, fixed in 2% methanol‐free formaldehyde (Invitrogen), resuspended in 2% fetal calf serum (FCS)/PBS, and analyzed by flow cytometry (Attune NxT Flow Cytometer, Thermo Scientific). For each peptide, a delta MFI was calculated by subtracting MFI from non‐TG2 specific A20 cell (unspecific binding) from MFI of TG2‐specific A20 cells. Delta MFI was normalized for each experiment by dividing by the highest delta value per experiment. To assess the contribution and uptake of isopeptide‐linked TG2:gluten complexes, TG2 (3 µg/mL) and FITC‐labelled peptides (5 µM) were preincubated in RPMI with 2 mM CaCl2 at 37°C for 30 min before addition of A20 cells followed by 30 min incubation at 37°C. To examine the effect of TG2 secondary substrates on peptide uptake, the primary amines spermine (Sigma–Aldrich) and biotinylated cadaverine (5‐biotinamido‐pentylamine; 5‐BP, Pierce) were added to the reaction mixture (0.1–1000 µM final concentration), followed by 10 min incubation at 37°C and flow cytometry analysis. The dose‐response curve fitting to find IC50 was done using the “[Inhibitor] vs. response” equation in GraphPad Prism 8.3.0. Of note, the presence of Lysine HCl in RPMI medium represents an experimental constant in our assays that is not accounted for when calculating the competitive effect of amine.

[2] = test system: TCR-transfectant cells specific for DQ2.5-glia-ω2; test: Inhibition by primary amines of activation of DQ2.5-glia-ω2-specific T cells by TG2-specific B cells, IL-2 ELISA; format: cell-based; settings: for IC50: 5 µM N-ω-gliadin 34-mer, TG2, CaCl2, amine 0-1000 µM, IL-2 ELISA
Text: as §1
The B‐cell/T‐cell collaboration assays were set up as previously described. To compare the uptake and presentation of different gluten peptides to T cells, A20 cells (5 mill/mL) expressing the TG2‐specific BCR (679‐14‐E06) and HLA DQ2.5 were incubated with recombinant TG2 (final 3 µg/mL) and varying amounts of N‐α‐gliadin 20‐mer, N‐ω‐gliadin 19‐mer, or N‐γ‐gliadin 21‐mer in RPMI supplemented with 2 mM CaCl2. After a 30 min incubation at 37°C the cells were washed with 1% FCS/RPMI and resuspended in 5% FCS/RPMI to give a final 1.5 million cells/mL (150 000/well) followed by 2 h incubation at 37°C. Next, TCR‐transfectant cells specific for either DQ2.5‐glia‐α2, DQ2.5‐glia‐ω2, or DQ2.5‐glia‐γ1 were added (25 000/well), followed by overnight incubation at 37°C. The next day, IL‐2 concentration was measured in the culture supernatant by ELISA as previously described. The responsiveness of different TCR transfectants was assessed in the same way, but without the 30 min incubation with TG2, and using the synthetic deamidated peptides (D‐α‐gliadin 20‐mer, D‐ω‐gliadin 17‐mer, and D‐γ‐gliadin 21‐mer). To assess how TG2 secondary substrate affects peptide uptake and presentation to T cells, TG2‐specific A20 cells expressing DQ2.5 were incubated with TG2, CaCl2, 5 µM N‐ω‐gliadin 34‐mer, or 5 µM N‐α‐gliadin 33‐mer in the presence of primary amines at increasing concentrations (0‐1000 µM), before the addition of TCR‐transfectant cells specific for the DQ2.5‐glia‐α2 or DQ2.5‐glia‐ω2 epitopes. The dose‐response curve fitting to find IC50 was done using the “[Inhibitor] vs. response” equation in GraphPad Prism 8.3.0. To examine whether primary amines directly affect the B cells, TG2‐specific A20 cell expressing DQ2.5 were incubated with primary amines for 30 min and washed, before addition of 2 µM D‐ω‐gliadin 34‐mer, followed by incubation with DQ2.5‐glia‐ω2 TCR transfectants.

[3] = logIC50, inhibition of FITC-α2 uptake, Figure 4
[4] = logIC50, inhibition of FITC-α2 uptake, mean
[5] = logIC50, inhibition of FITC-α2 uptake, replicate Figure S4 A
[6] = logIC50, inhibition of FITC-α2 uptake, replicate Figure S4 B
[7] = logIC50, inhibition of FITC-γ1 uptake, Figure 4
[8] = logIC50, inhibition of FITC-γ1 uptake, mean
[9] = logIC50, inhibition of FITC-γ1 uptake, replicate Figure S4 C
[10] = logIC50, inhibition of FITC-ω2 uptake, Figure 4
[11] = logIC50, inhibition of FITC-ω2 uptake, mean
[12] = logIC50, inhibition of FITC-ω2 uptake, replicate Figure S4 A
[13] = DQ2.5-glia-ω2, replicate Figure S5A
[14] = DQ2.5-glia-ω2, replicate Figure S5B
[15] = logIC50, DQ2.5-glia-ω2, Figure 5
[16] = logIC50, DQ2.5-glia-ω2, replicate Figure S5A
[17] = logIC50, DQ2.5-glia-ω2, replicate Figure S5B

- IC50 ([1]; 10 min, inhibition of FITC-α2 (5 µM) uptake, TG2 3 µg/mL, 2 mM CaCl2, RPMI, 37°C 10 min, Figure 4, read-out: IC50): 29.3 µM
- IC50 ([1]; 10 min, inhibition of FITC-α2 (5 µM) uptake, TG2 3 µg/mL, 2 mM CaCl2, RPMI, 37°C 10 min, mean, read-out: IC50): 66.1 µM
- IC50 ([1]; 10 min, inhibition of FITC-α2 (5 µM) uptake, TG2 3 µg/mL, 2 mM CaCl2, RPMI, 37°C 10 min, replicate Figure S4 A, read-out: IC50): 47.6 µM
- IC50 ([1]; 10 min, inhibition of FITC-α2 (5 µM) uptake, TG2 3 µg/mL, 2 mM CaCl2, RPMI, 37°C 10 min, replicate Figure S4 B, read-out: IC50): 121 µM
- IC50 ([1]; 10 min, inhibition of FITC-γ1 (5 µM) uptake, TG2 3 µg/mL, 2 mM CaCl2, RPMI, 37°C 10 min, Figure 4, read-out: IC50): 45.3 µM
- IC50 ([1]; 10 min, inhibition of FITC-γ1 (5 µM) uptake, TG2 3 µg/mL, 2 mM CaCl2, RPMI, 37°C 10 min, mean, read-out: IC50): 31.9 µM
- IC50 ([1]; 10 min, inhibition of FITC-γ1 (5 µM) uptake, TG2 3 µg/mL, 2 mM CaCl2, RPMI, 37°C 10 min, replicate Figure S4 C, read-out: IC50): 18.7 µM
- IC50 ([1]; 10 min, inhibition of FITC-ω2 (5 µM) uptake, TG2 3 µg/mL, 2 mM CaCl2, RPMI, 37°C 10 min, Figure 4, read-out: IC50): 14 µM
- IC50 ([1]; 10 min, inhibition of FITC-ω2 (5 µM) uptake, TG2 3 µg/mL, 2 mM CaCl2, RPMI, 37°C 10 min, mean (spermine: Figure S4 B not included), read-out: IC50): 26.1 µM
- IC50 ([1]; 10 min, inhibition of FITC-ω2 (5 µM) uptake, TG2 3 µg/mL, 2 mM CaCl2, RPMI, 37°C 10 min, replicate Figure S4 A, read-out: IC50): 38.2 µM
- IC50 ([1]; FITC 9-mer native gluten peptides, average IC50 values, Table S1, read-out: IC50, inhibition of FITC-9-mer peptide uptake (average values)): 26 to 72 µM
- IC50 ([2]; DQ2.5-glia-ω2, Figure 5): 55.1 µM
- IC50 ([2]; DQ2.5-glia-ω2, mean): 27.5 µM
- IC50 [2, 13]: 18.4 µM
- IC50 [2, 14]: 9.13 µM
Compound: NCCCNCCCCNCCCN [spermine]
- inhibition of FITC-9-mer uptake, in words ([1]; TG2 3 µg/mL, FITC peptide 5 µM, 2 mM CaCl2, 37°C 10 min, Figure 4, Figure S4): effectively inhibited uptake
- logIC50 ([1]; inhibition of FITC-α2 uptake, Figure 4): 1.47
- logIC50 ([1]; inhibition of FITC-α2 uptake, mean): 1.74
- logIC50 ([1]; inhibition of FITC-α2 uptake, replicate Figure S4 A): 1.68
- logIC50 ([1]; inhibition of FITC-α2 uptake, replicate Figure S4 B): 2.08
- logIC50 ([1]; inhibition of FITC-γ1 uptake, Figure 4): 1.66
- logIC50 ([1]; inhibition of FITC-γ1 uptake, mean): 1.46
- logIC50 ([1]; inhibition of FITC-γ1 uptake, replicate Figure S4 C): 1.27
- logIC50 ([1]; inhibition of FITC-ω2 uptake, Figure 4): 1.15
- logIC50 ([1]; inhibition of FITC-ω2 uptake, mean): 1.36
- logIC50 ([1]; inhibition of FITC-ω2 uptake, replicate Figure S4 A): 1.58
- logIC50 ([1]; inhibition of FITC-ω2 uptake, replicate Figure S4 B): 16.4
- log 95% CI lower limit [1, 3]: 0.911
- log 95% CI upper limit [1, 3]: 2.19
- log 95% CI lower limit [1, 4]: 1.31
- log 95% CI upper limit [1, 4]: 2.23
- log 95% CI lower limit [1, 5]: 1.49
- log 95% CI upper limit [1, 5]: 1.864
- log 95% CI lower limit [1, 6]: 1.53
- log 95% CI upper limit [1, 6]: 2.63
- log 95% CI lower limit [1, 7]: 1.20
- log 95% CI upper limit [1, 7]: 2.08
- log 95% CI lower limit [1, 8]: 1.02
- log 95% CI upper limit [1, 8]: 2.0
- log 95% CI lower limit [1, 9]: 0.84
- log 95% CI upper limit [1, 9]: 1.92
- log 95% CI lower limit [1, 10]: 0.93
- log 95% CI upper limit [1, 10]: 1.39
- log 95% CI lower limit [1, 11]: 1.16
- log 95% CI upper limit [1, 11]: 1.59
- log 95% CI lower limit [1, 12]: 1.38
- log 95% CI upper limit [1, 12]: 1.79
- logIC50 ([2]; DQ2.5-glia-ω2, Figure 5): 1.74
- logIC50 ([2]; DQ2.5-glia-ω2, mean): 1.32
- logIC50 [2, 13]: 1.26
- logIC50 [2, 14]: 0.960
- log 95% CI lower limit [2, 15]: 1.50
- log 95% CI upper limit [2, 15]: 1.99
- log 95% CI lower limit ([2]; logIC50, DQ2.5-glia-ω2, mean): 1.04
- log 95% CI upper limit ([2]; logIC50, DQ2.5-glia-ω2, mean): 1.58
- log 95% CI lower limit [2, 16]: 1.03
- log 95% CI upper limit [2, 16]: 1.50
- log 95% CI lower limit [2, 17]: 0.610
- log 95% CI upper limit [2, 17]: 1.26
